Assay [1] has as its target FGFR2 (Homo sapiens (Human), UniProt P21802). Kind of assay: FGFR Enzymatic Assay (FRET peptide phosphorylation), FGFR2. Conditions: read-out: FGFR2 IC50.
Excerpt: (§1) The enzymes were purchased from Millipore or Invitrogen.
(§2) GraphPad prism3 was used to analyze the data. The IC50 values were derived by fitting the data to the equation for a sigmoidal dose-response with a variable slope. Y=Bottom+(Top-Bottom)/(1+10^((LogIC50−X)*HillSlope)) where X is the logarithm of concentration and Y is the response.
Assay [2] deals with FGFR1 (Homo sapiens (Human), UniProt P11362). Briefly: FGFR Enzymatic Assay (FRET peptide phosphorylation), FGFR1. Conditions: read-out: FGFR1 IC50.
Excerpt: as §1, §2
Assay [3] deals with FGFR4 (Homo sapiens (Human), UniProt P22455). Briefly: FGFR Enzymatic Assay (FRET peptide phosphorylation), FGFR4. Conditions: for FGFR1/FGFR4 IC50 ratio / FGFR2/FGFR4 IC50 ratio / FGFR3/FGFR4 IC50 ratio: IC50 ratio showing FGFR4 selectivity.
Sequence of FGFR4 (P22455 22-802): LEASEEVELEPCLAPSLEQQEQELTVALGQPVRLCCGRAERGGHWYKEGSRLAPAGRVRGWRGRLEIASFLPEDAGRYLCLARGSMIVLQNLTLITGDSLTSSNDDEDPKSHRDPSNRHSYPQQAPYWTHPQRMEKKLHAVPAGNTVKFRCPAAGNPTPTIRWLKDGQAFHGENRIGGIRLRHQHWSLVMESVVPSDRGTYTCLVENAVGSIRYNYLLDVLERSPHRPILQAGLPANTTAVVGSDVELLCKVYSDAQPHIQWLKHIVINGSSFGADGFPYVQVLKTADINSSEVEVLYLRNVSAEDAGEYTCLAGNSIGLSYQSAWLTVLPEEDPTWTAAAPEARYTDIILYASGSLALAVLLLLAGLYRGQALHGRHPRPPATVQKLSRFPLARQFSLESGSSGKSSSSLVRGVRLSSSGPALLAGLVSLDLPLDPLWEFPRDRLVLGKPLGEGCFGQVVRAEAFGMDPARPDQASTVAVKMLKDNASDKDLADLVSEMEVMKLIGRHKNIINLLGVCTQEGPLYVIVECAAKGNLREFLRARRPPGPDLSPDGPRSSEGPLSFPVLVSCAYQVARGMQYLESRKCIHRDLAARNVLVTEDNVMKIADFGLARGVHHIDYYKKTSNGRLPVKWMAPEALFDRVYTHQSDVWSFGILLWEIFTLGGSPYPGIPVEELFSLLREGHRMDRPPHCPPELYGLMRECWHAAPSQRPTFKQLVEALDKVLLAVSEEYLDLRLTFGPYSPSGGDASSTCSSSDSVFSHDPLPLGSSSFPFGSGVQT
Excerpt: as §1, §2
In assay [4] the target is FGFR3 (Homo sapiens (Human), UniProt P22607). Briefly: FGFR Enzymatic Assay (FRET peptide phosphorylation), FGFR3. Conditions: read-out: FGFR3 IC50.
Sequence of FGFR3 (P22607 23-806): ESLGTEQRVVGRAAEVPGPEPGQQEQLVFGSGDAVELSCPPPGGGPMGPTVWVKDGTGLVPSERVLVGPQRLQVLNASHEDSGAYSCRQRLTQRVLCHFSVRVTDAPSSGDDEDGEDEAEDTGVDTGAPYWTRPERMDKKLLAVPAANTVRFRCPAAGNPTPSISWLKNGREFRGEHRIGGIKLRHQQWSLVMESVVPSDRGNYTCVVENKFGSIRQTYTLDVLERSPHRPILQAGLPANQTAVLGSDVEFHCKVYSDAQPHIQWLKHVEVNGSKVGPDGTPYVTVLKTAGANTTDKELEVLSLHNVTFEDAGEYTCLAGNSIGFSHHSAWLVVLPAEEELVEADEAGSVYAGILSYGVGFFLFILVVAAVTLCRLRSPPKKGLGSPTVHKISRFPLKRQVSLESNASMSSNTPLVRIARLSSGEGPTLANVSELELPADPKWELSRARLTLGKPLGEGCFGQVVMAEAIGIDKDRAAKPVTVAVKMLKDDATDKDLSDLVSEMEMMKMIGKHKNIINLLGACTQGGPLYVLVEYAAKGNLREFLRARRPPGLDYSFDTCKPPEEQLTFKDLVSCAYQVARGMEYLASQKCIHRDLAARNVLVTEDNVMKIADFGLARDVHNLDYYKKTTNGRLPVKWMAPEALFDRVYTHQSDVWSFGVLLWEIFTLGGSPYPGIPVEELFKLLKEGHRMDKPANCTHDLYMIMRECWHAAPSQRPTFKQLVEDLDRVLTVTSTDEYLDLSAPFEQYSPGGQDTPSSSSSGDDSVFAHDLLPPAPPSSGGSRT
Excerpt: as §1, §2
Where [5] appears, read: read-out: FGFR4 IC50, pre-incubated for 4 hours.
The mark [6] stands for this setting: pre-incubated for 5 to 10 minutes.
Where [7] appears, read: read-out: FGFR4 IC50, pre-incubated for 5 to 10 minutes.

Like-named read-outs stand apart in the source and are kept apart here.

The results in this text go back to US9580423B2, “Bicyclic heterocycles as FGFR4 inhibitors” (Incyte Corporation, priority 2015, dated 2017).

One may read the IC50 as the concentration needed to halve the response being measured.

Sequence of FGFR1 (P11362 22-822): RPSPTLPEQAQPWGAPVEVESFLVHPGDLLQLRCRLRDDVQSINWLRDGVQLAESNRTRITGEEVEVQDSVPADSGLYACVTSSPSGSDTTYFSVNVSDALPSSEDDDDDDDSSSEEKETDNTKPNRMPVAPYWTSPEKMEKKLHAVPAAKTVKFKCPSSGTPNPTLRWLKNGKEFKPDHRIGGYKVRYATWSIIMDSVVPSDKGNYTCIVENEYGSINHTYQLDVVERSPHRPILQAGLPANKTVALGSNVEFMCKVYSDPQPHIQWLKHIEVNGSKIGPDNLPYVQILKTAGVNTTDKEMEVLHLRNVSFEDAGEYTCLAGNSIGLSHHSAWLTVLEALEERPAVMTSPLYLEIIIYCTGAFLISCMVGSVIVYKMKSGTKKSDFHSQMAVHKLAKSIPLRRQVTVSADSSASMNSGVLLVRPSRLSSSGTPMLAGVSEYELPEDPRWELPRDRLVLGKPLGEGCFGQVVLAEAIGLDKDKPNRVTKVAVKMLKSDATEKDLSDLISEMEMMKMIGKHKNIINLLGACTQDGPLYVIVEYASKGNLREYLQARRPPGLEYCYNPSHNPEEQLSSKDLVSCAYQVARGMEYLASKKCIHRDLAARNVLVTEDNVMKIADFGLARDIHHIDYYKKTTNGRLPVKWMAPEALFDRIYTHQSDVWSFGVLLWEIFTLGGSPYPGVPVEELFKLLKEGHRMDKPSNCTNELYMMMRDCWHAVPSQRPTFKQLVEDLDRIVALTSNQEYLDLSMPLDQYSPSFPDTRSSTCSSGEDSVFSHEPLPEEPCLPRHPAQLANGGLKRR
Sequence of FGFR2 (P21802 22-821): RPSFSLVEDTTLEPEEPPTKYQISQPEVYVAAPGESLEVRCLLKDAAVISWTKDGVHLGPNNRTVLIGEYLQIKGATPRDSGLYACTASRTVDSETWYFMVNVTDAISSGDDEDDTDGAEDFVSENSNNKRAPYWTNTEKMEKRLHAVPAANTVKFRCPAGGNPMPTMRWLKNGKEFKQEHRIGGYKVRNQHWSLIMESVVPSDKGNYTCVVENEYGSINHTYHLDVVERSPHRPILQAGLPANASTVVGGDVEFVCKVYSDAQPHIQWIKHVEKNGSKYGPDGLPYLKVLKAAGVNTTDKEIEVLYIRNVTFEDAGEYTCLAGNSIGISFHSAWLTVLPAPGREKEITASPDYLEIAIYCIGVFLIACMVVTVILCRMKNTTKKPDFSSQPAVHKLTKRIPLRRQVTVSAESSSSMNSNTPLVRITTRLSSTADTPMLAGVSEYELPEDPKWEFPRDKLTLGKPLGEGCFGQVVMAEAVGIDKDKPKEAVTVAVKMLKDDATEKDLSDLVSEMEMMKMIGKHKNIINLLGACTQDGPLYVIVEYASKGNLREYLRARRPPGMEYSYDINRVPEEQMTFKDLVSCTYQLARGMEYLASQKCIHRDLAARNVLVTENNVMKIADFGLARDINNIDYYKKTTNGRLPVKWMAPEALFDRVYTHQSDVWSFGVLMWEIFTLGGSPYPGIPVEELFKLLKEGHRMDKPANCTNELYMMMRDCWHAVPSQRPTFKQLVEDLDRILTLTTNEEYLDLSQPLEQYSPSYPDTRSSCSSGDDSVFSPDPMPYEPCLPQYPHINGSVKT

Consider `C=CC(=O)Nc1cn(CCOC(F)(F)F)nc1-c1cc2c(cn1)CN(c1c(F)c(OC)cc(OC)c1F)C(=O)C21CC1` [Example 33, N-(3-(2′-(2,6-difluoro-3,5-dimethoxyphenyl)-3′-oxo-2′,3′-dihydro-1′H-spiro[cyclopropane-1,4′-[2,7]naphthyridine]-6′-yl)-1-(2-(trifluoromethoxy)ethyl)-1H-pyrazol-4-yl)acrylamide], for which the half-inhibitory concentration (IC50) in assay [1] (pre-incubated for 4 hours) was greater than 200 nM; in assay [2] (pre-incubated for 4 hours), greater than 200 nM; in assay [3] (setting [5]) it was less than 10 nM; in assay [4] (pre-incubated for 4 hours), greater than 200 nM. Further, the “FGFR1/FGFR4 IC50 ratio” value in assay [3] (pre-incubated for 4 hours) is greater than 100. The “FGFR2/FGFR4 IC50 ratio” value in assay [3] (pre-incubated for 4 hours) is reported as greater than 100. The “FGFR3/FGFR4 IC50 ratio” value in assay [3] (pre-incubated for 4 hours) is given as greater than 100.
For `C=CC(=O)Nc1cc(CN2CCOCC2)cc(-c2cc3c(cn2)CN(c2c(F)c(OC)cc(OC)c2F)C(=O)C32CC2)c1` [Example 11, N-[3-[2′-(2,6-difluoro-3,5-dimethoxyphenyl)-3′-oxo-2′,3′-dihydro-1′H-spiro[cyclopropane-1,4′-[2,7]naphthyridin]-6′-yl]-5-(morpholin-4-ylmethyl)phenyl]acrylamide], the IC50 in assay [1] (setting [6]) is greater than 200 nM; in assay [1] (pre-incubated for 4 hours), greater than 200 nM; in assay [2] (setting [6]), greater than 200 nM; in assay [2] (pre-incubated for 4 hours), greater than 200 nM; in assay [3] (setting [7]) it was less than 10 nM; in assay [3] (setting [5]) it was less than 10 nM. Also, the IC50 in assay [4] (setting [6]) and in assay [4] (pre-incubated for 4 hours) was greater than 200 nM throughout. In addition, the “FGFR1/FGFR4 IC50 ratio” value in assay [3] (setting [6]) and in assay [3] (pre-incubated for 4 hours) was greater than 100 throughout. Further, the “FGFR2/FGFR4 IC50 ratio” value in assay [3] (setting [6]) and in assay [3] (pre-incubated for 4 hours) was greater than 100 in each case. In addition, the “FGFR3/FGFR4 IC50 ratio” value in assay [3] (setting [6]) and in assay [3] (pre-incubated for 4 hours) was greater than 100 in each case.
Regarding `C=CC(=O)N1CCCC(c2cc3c(cn2)CN(c2c(F)c(OC)cc(OC)c2F)C(=O)C32CC2)C1` (stereo not shown) [Example 8, 6′-(1-acryloylpiperidin-3-yl)-2′-(2,6-difluoro-3,5-dimethoxyphenyl)-1′H-spiro[cyclopropane-1,4′-[2,7]naphthyridin]-3′(2′H)-one], the IC50 was greater than 200 nM in assay [1] (setting [6]); greater than 200 nM in assay [1] (pre-incubated for 4 hours); greater than 200 nM in assay [2] (setting [6]); greater than 200 nM in assay [2] (pre-incubated for 4 hours); 30 to 200 nM in assay [3]; greater than 200 nM in assay [3] (setting [7]). Moreover, the IC50 in assay [4] (setting [6]) and in assay [4] (pre-incubated for 4 hours) was greater than 200 nM each time. Also, the results for the “FGFR1/FGFR4 IC50 ratio” value in assay [3] (setting [6]) and in assay [3] (pre-incubated for 4 hours) were greater than 5 and greater than 10, respectively. Further, the figures for the “FGFR2/FGFR4 IC50 ratio” value in assay [3] (setting [6]) and in assay [3] (pre-incubated for 4 hours) were greater than 1 and greater than 2, respectively. For the same compound, the “FGFR3/FGFR4 IC50 ratio” value in assay [3] (setting [6]) is greater than 1; in assay [3] (pre-incubated for 4 hours), greater than 2.
As to `C=CC(=O)Nc1cnn(C2CCOCC2)c1-c1cc2c(cn1)CN(c1c(F)c(OC)cc(OC)c1F)C(=O)C21CC1` [Example 18, N-(5-(2′-(2,6-difluoro-3,5-dimethoxyphenyl)-3′,-oxo-2′,3′-dihydro-1′H-spiro[cyclopropane-1,4′-[2,7]naphthyridine]-6′-yl)-1-(tetrahydro-2H-pyran-4-yl)-1H-pyrazol-4-yl)acrylamide], the half-maximal inhibitory concentration (IC50) was greater than 200 nM in assay [1] (pre-incubated for 4 hours), greater than 200 nM in assay [2] (pre-incubated for 4 hours), 10 to 30 nM in assay [3] and greater than 200 nM in assay [4] (pre-incubated for 4 hours). The “FGFR1/FGFR4 IC50 ratio” value in assay [3] (pre-incubated for 4 hours) is greater than 100. Besides, the “FGFR2/FGFR4 IC50 ratio” value in assay [3] (pre-incubated for 4 hours) is greater than 50. Besides, the “FGFR3/FGFR4 IC50 ratio” value in assay [3] (pre-incubated for 4 hours) is given as greater than 100.
On to `C=CC(=O)Nc1cn(CC2CCOCC2)nc1-c1cc2c(cn1)CN(c1c(F)c(OC)cc(OC)c1F)C(=O)C21CC1` [Example 35, N-(3-(2′-(2,6-difluoro-3,5-dimethoxyphenyl)-3′-oxo-2′,3′-dihydro-1′H-spiro[cyclopropane-1,4′-[2,7]naphthyridine]-6′-yl)-1-((tetrahydro-2H-pyran-4-yl)methyl)-1H-pyrazol-4-yl)acrylamide], for which the IC50 in assay [1] (pre-incubated for 4 hours) was greater than 200 nM; in assay [2] (pre-incubated for 4 hours), greater than 200 nM; in assay [3] (setting [5]), less than 10 nM; in assay [4] (pre-incubated for 4 hours) it was greater than 200 nM. Further, in assay [3] (pre-incubated for 4 hours), the “FGFR1/FGFR4 IC50 ratio” value is on record as greater than 100. In assay [3] (pre-incubated for 4 hours), the “FGFR2/FGFR4 IC50 ratio” value was greater than 100. In assay [3] (pre-incubated for 4 hours), the “FGFR3/FGFR4 IC50 ratio” value is reported as greater than 100.
